Laboratory results taken from ChEMBL document CHEMBL5625261, “Cytotoxic effects of kinetin riboside and its selected analogues on cancer cell lines” (Bioorg Med Chem Lett, 2024).

Tests used:
HeLa [1] = test: Cytotoxicity against human HeLa cells assessed as reduction in cell viability incubated for 24 hrs by MTT assay; assay type: functional, cell-based
HeLa [2] = test: Cytotoxicity against human HeLa cells assessed as reduction in cell viability incubated for 48 hrs by MTT assay; assay type: functional, cell-based
HeLa [3] = test: Cytotoxicity against human HeLa cells assessed as reduction in cell viability incubated for 72 hrs by MTT assay; assay type: functional, cell-based
MCF7 [4] = test: Cytotoxicity against human MCF7 cells assessed as reduction in cell viability incubated for 24 hrs by MTT assay; assay type: functional, cell-based; conditions: MCF7, 24 h
MCF7 [5] = test: Cytotoxicity against human MCF7 cells assessed as reduction in cell viability incubated for 48 hrs by MTT assay; assay type: functional, cell-based; conditions: MCF7, 48 h
MCF7 [6] = test: Cytotoxicity against human MCF7 cells assessed as reduction in cell viability incubated for 72 hrs by MTT assay; assay type: functional, cell-based; conditions: MCF7, 72 h
Caco-2 [7] = test: Cytotoxicity against human Caco-2 cells assessed as reduction in cell viability incubated for 24 hrs by MTT assay; assay type: functional, cell-based; conditions: Caco-2, 24 h
Caco-2 [8] = test: Cytotoxicity against human Caco-2 cells assessed as reduction in cell viability incubated for 48 hrs by MTT assay; assay type: functional, cell-based; conditions: Caco-2, 48 h
Caco-2 [9] = test: Cytotoxicity against human Caco-2 cells assessed as reduction in cell viability incubated for 72 hrs by MTT assay; assay type: functional, cell-based; conditions: Caco-2, 72 h
OVCAR-3 [10] = test: Cytotoxicity against human OVCAR-3 cells assessed as reduction in cell viability incubated for 24 hrs by MTT assay; assay type: functional, cell-based; conditions: OVCAR-3, 24 h
OVCAR-3 [11] = test: Cytotoxicity against human OVCAR-3 cells assessed as reduction in cell viability incubated for 48 hrs by MTT assay; assay type: functional, cell-based; conditions: OVCAR-3, 48 h
OVCAR-3 [12] = test: Cytotoxicity against human OVCAR-3 cells assessed as reduction in cell viability incubated for 72 hrs by MTT assay; assay type: functional, cell-based; conditions: OVCAR-3, 72 h
MIA PaCa-2 [13] = test: Cytotoxicity against human MIA PaCa-2 cells assessed as reduction in cell viability incubated for 24 hrs by MTT assay; assay type: functional, cell-based; conditions: MIA PaCa-2, 24 h
MIA PaCa-2 [14] = test: Cytotoxicity against human MIA PaCa-2 cells assessed as reduction in cell viability incubated for 48 hrs by MTT assay; assay type: functional, cell-based; conditions: MIA PaCa-2, 48 h
MIA PaCa-2 [15] = test: Cytotoxicity against human MIA PaCa-2 cells assessed as reduction in cell viability incubated for 72 hrs by MTT assay; assay type: functional, cell-based; conditions: MIA PaCa-2, 72 h
[16] = Cytotoxicity against human MRC5 cells assessed as reduction in cell viability incubated for 24 hrs by MTT assay; assay type: toxicity, cell-based
[17] = Cytotoxicity against human MRC5 cells assessed as reduction in cell viability incubated for 48 hrs by MTT assay; assay type: toxicity, cell-based
[18] = Cytotoxicity against human MRC5 cells assessed as reduction in cell viability incubated for 72 hrs by MTT assay; assay type: toxicity, cell-based
HeLa [19] = test: Cytotoxicity against human HeLa cells assessed as reduction in cell viability at 100 uM incubated for 24 hrs by MTT assay relative to control; assay type: functional
MCF7 [20] = test: Cytotoxicity against human MCF7 cells assessed as reduction in cell viability at 100 uM incubated for 24 hrs by MTT assay relative to control; assay type: functional
MRC5 = test: Cytotoxicity against human MRC5 cells assessed as reduction in cell viability at 100 uM incubated for 24 hrs by MTT assay relative to control; assay type: toxicity, cell-based; conditions: mrc5, 24 h
HL-60 [21] = test: Cytotoxicity against human HL-60 cells assessed as inhibition of cell growth incubated for 5 days; assay type: functional, cell-based; conditions: HL-60, 120 h
M4Beu cell line = test: Cytotoxicity against human M4Beu cell line assessed as inhibition of cell growth incubated for 14 days by crystal violet staining based assay; assay type: functional; conditions: 336 h
B16 = test: Cytotoxicity against mouse B16 cells assessed as inhibition of cell growth incubated for 10 days by crystal violet staining based assay; assay type: functional; conditions: B16, 240 h
A-375 = test: Antiproliferative activity against human A-375 cells assessed as cell growth inhibition incubated for 72 hrs by Beckman Coulter counting method; assay type: functional, cell-based; conditions: A-375, 72 h
G-361 = test: Antiproliferative activity against human G361 cells assessed as cell growth inhibition incubated for 72 hrs by Beckman Coulter counting method; assay type: functional, cell-based; conditions: G-361, 72 h
LOX IMVI = test: Antiproliferative activity against human LOX IMVI cells assessed as cell growth inhibition incubated for 72 hrs by Beckman Coulter counting method; assay type: functional, cell-based
HT-29 = test: Antiproliferative activity against human HT-29 cells assessed as cell growth inhibition incubated for 72 hrs by Beckman Coulter counting method; assay type: functional, cell-based; conditions: HT-29, 72 h
HCT-116 = test: Antiproliferative activity against human HCT-116 cells assessed as cell growth inhibition incubated for 72 hrs by Beckman Coulter counting method; assay type: functional, cell-based; conditions: HCT-116, 72 h
MIA PaCa-2 [22] = test: Antiproliferative activity against human MIA PaCa-2 cells assessed as cell growth inhibition incubated for 72 hrs by Beckman Coulter counting method; assay type: functional, cell-based; conditions: MIA PaCa-2, 72 h
[23] = Antiproliferative activity against human HEK cells assessed as cell growth inhibition incubated for 72 hrs by Beckman Coulter counting method; assay type: toxicity, cell-based
[24] = Antiproliferative activity against human HS27 cells assessed as cell growth inhibition incubated for 72 hrs by Beckman Coulter counting method; assay type: toxicity, cell-based
CCRF-CEM = test: Antiproliferative activity against human CEM cells assessed as cell growth inhibition incubated for 72 hrs by Calcein AM staining based fluorescence assay; assay type: functional
HL-60 [25] = test: Antiproliferative activity against human HL-60 cells assessed as cell growth inhibition incubated for 72 hrs by Calcein AM staining based fluorescence assay; assay type: functional; conditions: HL-60, 72 h
MCF7 [26] = test: Antiproliferative activity against human MCF7 cells assessed as cell growth inhibition incubated for 72 hrs by Calcein AM staining based fluorescence assay; assay type: functional; conditions: MCF7, 72 h
HeLa [27] = test: Antiproliferative activity against human HeLa cells assessed as cell growth inhibition incubated for 72 hrs by Calcein AM staining based fluorescence assay; assay type: functional
A549 = test: Antiproliferative activity against human A549 cells assessed as cell growth inhibition incubated for 48 hrs by MTT assay; assay type: functional, cell-based; conditions: A549, 48 h
HCT-15 = test: Antiproliferative activity against human HCT-15 cells assessed as cell growth inhibition incubated for 4 days by SRB assay; assay type: functional, cell-based; conditions: HCT-15, 96 h
DU-145 = test: Antiproliferative activity against human DU-145 cells assessed as reduction in cell viability incubated for 48 to 96 hrs by crystal violet staining assay; assay type: functional; conditions: time 48-96 hrs
[28] = Antiproliferative activity against human PZ-HPV-7 cells assessed as reduction in cell viability incubated for 48 to 96 hrs by crystal violet staining assay; assay type: toxicity, cell-based; conditions: time 48-96 hrs

OC[C@H]1O[C@@H](n2cnc3c(NCc4ccco4)ncnc32)[C@H](O)[C@@H]1O [KINETIN RIBOSIDE]
IC50 (HeLa [1]): > 100000 nM
IC50 (HeLa [2]): > 100000 nM
IC50 (HeLa [3]): > 100000 nM
IC50 (MCF7 [4]): 16100 nM
IC50 (MCF7 [5]): 2800 nM
IC50 (MCF7 [6]): 2700 nM
IC50 (Caco-2 [7]): 88000 nM
IC50 (Caco-2 [8]): 42000 nM
IC50 (Caco-2 [9]): 23500 nM
IC50 (OVCAR-3 [10]): > 100000 nM
IC50 (OVCAR-3 [11]): 7800 nM
IC50 (OVCAR-3 [12]): 3100 nM
IC50 (MIA PaCa-2 [13]): > 100000 nM
IC50 (MIA PaCa-2 [14]): 3100 nM
IC50 (MIA PaCa-2 [15]): 2600 nM
IC50 at 24 h [16]: 18000 nM
IC50 at 48 h [17]: 2500 nM
IC50 at 72 h [18]: 1700 nM
Activity (HeLa [19]): ~30%
Activity (MCF7 [20]): ~80%
Activity (MRC5): ~ 80%
IC50 (HL-60 [21]): 980 nM
IC50 (M4Beu cell line): 1500 nM
IC50 (B16): 200 nM
IC50 (A-375): 160 nM
IC50 (G-361): 160 nM
IC50 (LOX IMVI): 160 nM
IC50 (HT-29): 160 nM
IC50 (HCT-116): 160 nM
IC50 (MIA PaCa-2 [22]): 160 nM
IC50 at 72 h [23]: 110 nM
IC50 at 72 h [24]: 180 nM
IC50 (CCRF-CEM): 1600 nM
IC50 (HL-60 [25]): 800 nM
IC50 (MCF7 [26]): 4300 nM
IC50 (HeLa [27]): 4300 nM
IC50 (A549): 10500 nM
IC50 (HCT-15): 12300 nM
Activity (DU-145): 35%
Activity [28]: 85%
